The METLIN SMRT retention time set (Domingo-Almenara et al. 2019)

Test: gradient 5% acetonitrile 3 min, to 50% in 2 min, to 85% in 15 min, held 3 min, 100 µL/min
Conditions: column: Zorbax Extend-C18 2.1 x 50 mm; eluents: water / acetonitrile, 0.1% formic acid
How it was run: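 Data were gathered over 3 months by HPLC coupled to a quadrupole time-of-flight mass spectrometer, operated in positive and negative ionization mode. Mixtures of ~100 pure standards ran on a Zorbax Extend-C18 column (2.1 × 50 mm, 1.8 μm) at 100 μL/min, with water and acetonitrile each containing 0.1% formic acid and dead and dwell volumes of 40 μL and 900 μL. Retention time was read from adduct peaks picked by computer and checked manually.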

SMILES | RP-LC retention time [s]
Cc1ccccc1CNC(=O)c1sc(-c2cn(C)c3ncccc23)nc1C | 928
CCOc1ccc(S(=O)(=O)N(CC)CC(=O)N2CCNCC2)cc1 | 623
CN(C)c1cc(C(=O)NC2CC2)c2cc(F)ccc2n1 | 722
Cn1c(=O)c(=O)n(C)c2cc(N3CCCCC3)c(NC(=O)CN3CCOCC3)cc21 | 608
O=C(NCc1ccc(N2CCOCC2)cc1)C1CCCN(c2nccnc2Sc2ccccc2)C1 (stereo unspecified) | 933
COc1ccc(C2(C(=O)N[C@@H]3CN(S(C)(=O)=O)C[C@H]3CN(C)C)CC2)cc1 | 635
Clc1ccc(OCc2nn3c(CSc4ccccc4)nnc3s2)cc1 | 1040
O=C(C1CC1)N1CCc2sc(S(=O)(=O)Nc3ccc(N4CCOCC4)cc3)cc2C1 | 743
Cc1ccc(-c2nc(Cn3ccn4nc(-c5ccc(F)cc5)cc4c3=O)c(C)o2)cc1 | 1220
Cc1ccc(CNC(=O)CCc2nc(N3CCCCC3)c3c(-c4ccc(F)cc4)noc3n2)o1 | 1030
Cc1cc(C)c2c(N3CCCCC3)nc(C(=O)NCCN3CCOCC3)nc2n1 | 550
CCC1Cn2c(C(=O)NCCc3c[nH]c4ccccc34)cc3c(Cl)ccc(c32)O1 (stereo unspecified) | 1220
Cc1c(C2CCN(C(=O)c3ccc(Br)cc3)CC2)noc1N | 728
COc1ccc(-c2cc(=O)n3c4ccccc4n(CC(=O)NCc4ccco4)c3n2)cc1 | 855
COCCNC(=O)c1cc2c(n(-c3ccc(F)cc3)c1=O)CCCC2=O | 701
O=C(Nc1ccc(-n2cnc(C(=O)N3CCN(c4ccccc4)CC3)c2)nc1)C1CC1 | 726
Cc1c(F)cccc1NC(=O)N1CC(F)(F)C[C@H]1CN1CCCC1 | 676
CCNC(=O)C1CC(=O)N(C2CCCCC2)C1 (stereo unspecified) | 623
CCc1ccccc1N1C(=O)CN(S(C)(=O)=O)CC1(C)C(=O)NCc1ccc(Cl)cc1 (stereo unspecified) | 893
CCc1nnc2ccc(-c3noc(Cc4ccc(C)cc4)n3)cn12 | 918
Cc1nc(-c2noc(-c3ccc(F)cc3)n2)cn1CC(=O)Nc1cccc(F)c1 | 897
COCC(C)(O)CNC(=O)C(=O)NCc1ccc(C)cc1 (stereo unspecified) | 674

SMILES | RP-LC retention time [s]
CC(C)C(=O)NCc1csc(C2CCN(C(=O)C3(c4ccccc4)CC3)CC2)n1 | 740
O=C(COc1ccc(F)cc1)Nc1cnc(N2CCCCCC2)nc1 | 957
CCc1ccc(S(=O)(=O)N2CC(F)(F)C[C@H]2c2nnc(C)o2)cc1 | 858
CCNC(=O)N1CCCC(Cn2c(C3CC3)nc3cccnc32)C1 (stereo unspecified) | 585
Fc1ccc(Cn2cc(-c3noc(-c4ccc5cc[nH]c5c4)n3)nn2)cc1 | 952
Cc1noc(C)c1CNC(=O)c1ccc(OC(F)(F)F)cc1 | 825
COc1cccc(-c2nc(C3CCN(S(=O)(=O)c4ccc5c(c4)CCC5)CC3)no2)c1 | 1220
Cc1ccc2[nH]cc(CCNC(=O)c3ccc4nc(C(C)C)oc4c3)c2c1 | 925
CCNC(=O)N1CC(n2cc(C(=O)NCCOC)nn2)C1 | 1260
CCCNC(=O)N1C[C@@H]2C(=O)N(Cc3ccc4c(c3)OCO4)C(=O)[C@@H]2C1 | 708
CCn1cc(CN2CCC(C(=O)NC3CCCCCC3)CC2)c2cc(Cl)ccc21 | 777
Cc1nc(-c2ccc3c(c2)n(CC(=O)NC2CCCCCCC2)c(=O)n3C(C)C)no1 | 945
COc1ccc(Cl)cc1S(=O)(=O)NCc1cccnc1-c1cccc(C)c1 | 771
Fc1cnccc1CN1CC[C@@H]2CN(Cc3ccccc3)[C@@H]2C1 | 597
CC(=O)N1CCc2sc(S(=O)(=O)NCc3ccc4c(c3)OCO4)cc2C1 | 727
CC(C)C(=O)N1CCc2c([nH]c3ccccc23)C12C(=O)N(C)c1ccc(Br)cc12 (stereo unspecified) | 976
CCOC(=O)C1=C(CN2CCCCCC2)NC(=O)NC1c1ccc(OC(C)C)cc1 (stereo unspecified) | 679
Cc1ccc(-c2ccc(-n3nc(C)c(S(=O)(=O)NCc4ccc5c(c4)OCO5)c3C)nn2)cc1 | 1020
CCOC(=O)c1ccc(NC(=O)Cn2nc(N3CCCC(C)C3)c3ccccc3c2=O)cc1 (stereo unspecified) | 1200
CN(C)CCNC(=O)c1cc2n(n1)CC(C)(C(=O)NCc1ccc(F)cc1)N(C)C2=O (stereo unspecified) | 576
Cn1c(CCNC(=O)c2ccc(C(F)(F)F)cc2)nc2cccnc21 | 686
COCCN1CC2(CCN(S(=O)(=O)c3cc(C)c(C)cc3C)CC2)C1c1ccncc1 (stereo unspecified) | 672

SMILES | RP-LC retention time [s]
O=C(NCc1ccc2c(c1)OCO2)c1nnc(-c2ccc(S(=O)(=O)N3CCCC3)cc2)o1 | 854
O=C1CN(c2ccccc2NC(=O)c2ccc[nH]c2=O)CCN1 | 588
Cc1c(S(=O)(=O)N2c3ccccc3CC2C)cc(C(=O)N2CCC(C)CC2)n1C (stereo unspecified) | 723
O=C(c1ccc(F)cc1)N1CCN(c2ccc(N3CCCC3)nn2)CC1 | 604
CCc1ccccc1NC(=O)Cn1cnc2nc(N3CCCC(C(=O)NC)C3)sc2c1=O (stereo unspecified) | 646
Cc1nc(Nc2ccc(F)cn2)sc1C(=O)NCc1ccc(F)cc1 | 832
COCCN1C(=O)c2cccn2CC1CNS(=O)(=O)c1c(C)noc1C (stereo unspecified) | 689
O=C(Cc1cccc(F)c1)N1CCC2(C1)C(=O)Nc1ccccc12 (stereo unspecified) | 713
CSc1ccc(-c2nc3cnccn3c2Nc2ccc(C)cc2)cc1 | 1000
COCCNc1c(-c2ccccc2)nc2sc(C(=O)N3CCN(C)CC3)c(C)n12 | 601
O=C(Nc1cccc(Br)c1)N1CCC(n2cnnc2C2CC2)C1 (stereo unspecified) | 668
Cc1cc2nn(CC(=O)Nc3ccc(F)cc3)c(=O)n2c(-c2ccccc2)n1 | 785
Cc1cccc(CNC(=O)C2(C)Cn3cnc(C(=O)NC4CCCC4)c3C(=O)N2C2CC2)c1 (stereo unspecified) | 767
Cc1cccc(-c2nc(C)c3c(n2)N(Cc2cccnc2)C(=O)CC3)c1 | 722
COc1cc(Cl)ccc1-c1nc(-c2cccc(-c3ccnn3C)c2)no1 | 1190
CCOC(=O)c1[nH]c(C)c(CN(Cc2ccco2)C(=O)Cc2ccc(F)cc2)c1C | 1020
O=C(CCc1ccccc1)N1CCC(c2noc(-c3cnccn3)n2)C1 (stereo unspecified) | 735
CCc1nn2c(N3CCN(c4ccccn4)CC3)cc(C)nc2c1-c1ccccc1 | 670
Cc1[nH]c(C(=O)N2CCC(CC(=O)NCc3ccccc3)CC2)c(C)c1C(=O)OC(C)C | 802
Cc1nn(CC(=O)NCCCN2CCOCC2)c(=O)c2nc(-c3ccccc3)sc12 | 615
Cc1ccc(CN2CCN(CC(=O)N3CCC4(CC3)OCCO4)C(=O)C2=O)cc1 | 653
O=C(CN1C(=O)c2cccc3cccc(c23)C1=O)NCC1CCCO1 (stereo unspecified) | 651
